Values of other authors, collected in article PMC13566764 (International Journal of Molecular Sciences, 2026).

Design: method as in https://pubchem.ncbi.nlm.nih.gov
Settings: ref https://pubchem.ncbi.nlm.nih.gov

Q: Which pKa does the source give for O=C1NC(=O)C(c2ccccc2)(c2ccccc2)N1 [Phenytoin, phenytoin] here?
A: The pKa was 8.33.
